# In paper PMC8308784, “Novel Purine Chemotypes with Activity against Plasmodium falciparum and Trypanosoma cruzi” (Pharmaceuticals, 2021):
# How the values were obtained:
# P. falciparum 3D7 [1] = assay: P. falciparum primary screening at three fixed concentrations; type: cell-based; details: average of at least three experiments; for activity at 1 µM / activity at 10 µM / activity at 100 µM: Plasmodium falciparum, read-out: Primary screening, parasite growth relative to the negative control; for activity at 1 µM: 3D7, compound at 1 µM; for activity at 10 µM: 3D7, compound at 10 µM; for activity at 100 µM: 3D7, compound at 100 µM
# P. falciparum 3D7 [2] = assay: P. falciparum dose-response growth inhibition assay (FACS, SYTO 11); type: cell-based; details: P. falciparum 3D7, 48 h, mean (SD)
# Procedure: Apicomplexan parasite cultures were maintained at 3% hematocrit under an atmosphere of 37 °C in 93% N2, 5% CO2, and 2% O2, following standard methods. Synchronized cultures were obtained via 5% sorbitol lysis.
# P. falciparum growth was primarily analyzed under 3 different concentrations ([…]) of the 81 compounds. Conditions were tested in triplicate for every concentration, and the test was repeated when the standard deviation was above 10% for any concentration. Z-values varied between 0.83 and 0.98 in the different plates analyzed. Selected compounds (12.3% potential hit rate) were further analyzed via standard growth inhibition assays, carried out as previously described in [54]. Briefly, parasitemia was adjusted to 1–1.3%, with >90% rings after sorbitol synchronization. Two hundred microliters of parasite culture were plated in 96-well microplates and incubated for 48 h at 37 °C in the presence of decreasing concentrations of the tested compounds, in triplicate. Parasitemia was determined by fluorescence-assisted cell sorting (FACS). Non-infected RBCs and samples containing parasitized RBCs (including controls with DMSO as carrier solvent) were diluted in PBS to a final concentration of ~1–10 × 10^6 cells/mL. The cell suspension was stained with SYTO 11 (0.5 mM stock in DMSO, Thermo Fisher Scientific, Waltham, MA, USA), to a final concentration of 0.5 μM. Samples were analyzed in a Becton Dickinson FACSCalibur. Sample excitation was carried out using a 488-nm, air-cooled argon-ion laser at a power of 15 mW, using forward and side scatter to gate the RBC population, and SYTO 11 green fluorescence (530 nm, FITC filter) was collected in a logarithmic scale. The single-cell population was selected on a forward–side scattergram, and the green fluorescence from this population was analyzed. Parasitemia was expressed as the number of parasitized cells per 100 erythrocytes.
# (§1) Absorbance values derived from the anti-T. cruzi assays and fluorescence values from the anti-P. falciparum and cell toxicity assays were normalized to the controls. In the primary screening at three fixed doses, the compounds’ inhibitory activity was expressed as a percentage of the negative control (100% parasitic growth). In dose–response assays, the compounds’ IC50 and TC50 values were determined with GraphPad Prism 7 software (version 7.00, 2016), using a non-linear regression analysis model defined by the following equation: Y=100 ÷(1+10^((LogIC50−X)×HillSlope))
# HepG2 cells = assay: HepG2 cell toxicity assay (alamarBlue); type: cell-based, human; details: 2 days; minimum value of the 95% CI, except BNZ (mean (SD))
# Procedure: Human erythrocytes were purified from B+ Rh+ blood samples and maintained at 4 °C in incomplete RPMI medium. Vero (green monkey kidney epithelial cells), LLC-MK2 (Rhesus monkey kidney epithelial cells), and HepG2 (human liver epithelial cells) cultures were cultivated in DMEM supplemented with 1% penicillin–streptomycin (PS) and 10% heat-inactivated fetal bovine serum (FBS) at 37 °C, 5% CO2, and >95% humidity, as described in [31]. HepG2 cells were also supplemented with 10% non-essential amino acids. Vero and MK2 cells were passaged twice per week at 1:12 ratios, while HepG2 cells were passaged at a 1:8 ratio.
# Vero and HepG2 cells were detached, centrifuged, and resuspended in DMEM without phenol red. Cell viability was checked upon cell counting with trypan blue staining. Then, Vero and HepG2 cells were diluted at a concentration of 5 × 10^5 and 3.2 × 10^5 cells per mL, respectively, before adding 100 µL per well to the 96-well plate. Each run contained its own negative (untreated cells) and positive (medium alone) controls. Plates were incubated at 37 °C for 4 days in the case of Vero, or 2 in the case of HepG2 cells. Assay readout was made by adding 50 µL per well of a PBS solution containing 10% alamarBlue reagent (Thermo Fisher Scientific); then, plates were incubated for another 6 h at 37 °C, before recording the fluorescence intensity with a Tecan Infinite M Nano+ reader (excitation: 530 nm, emission: 590 nm).
# as §1
Structure (SMILES),activity at 1 µM (P. falciparum 3D7 [1]),activity at 10 µM (P. falciparum 3D7 [1]),activity at 100 µM (P. falciparum 3D7 [1]),"IC50 (P. falciparum 3D7 [2]; Plasmodium falciparum, 3D7, 48 h)",HepG2 Cells TC50 (HepG2 cells),"Primary screening, parasite growth relative to the negative control (P. falciparum 3D7 [1]; compound at 1 µM)","Primary screening, parasite growth relative to the negative control (P. falciparum 3D7 [1]; compound at 10 µM)","Primary screening, parasite growth relative to the negative control (P. falciparum 3D7 [1]; compound at 100 µM)",IC50 (P. falciparum 3D7 [2])
CC(C)(C)n1c(-c2ccccc2)nc2c(OCc3ccccc3)ncnc21 [Compound 6D],117%,114%,13.2%,18.9 µM,>200 µM,,,,
c1ccc(CCn2c(-c3ccccc3)nc3c(OCc4ccccc4)ncnc32)cc1 [Compound 6g],,,,,>300 µM,100.79%,94.94%,24.45%,19.1 µM
COC(=O)c1ccccc1-n1cc(COc2ncnc3c2nc(-c2ccccc2)n3N(C)C)nn1 [Compound 34],95.6%,85%,43.2%,,,,,,
